The source made the active and inactive calls.
Columns and labels:
[1] = LGR2 antagonists, dose response, cell-based, HEK293, CRE-luciferase reporter, cherry pick, set 2 (AID 743343); format: functional;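 note: transfected cells were stimulated with diluted bursicon conditioned medium after compound addition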
[2] = HepG2 cell cytotoxicity, dose response, cytotoxicity control, plate reader, cherry-pick, antagonist series (AID 743416); format: functional, cell-based
[3] = HepG2 cell cytotoxicity, dose response, cytotoxicity control, ATP luminescence, cherry-pick, activator set 2 (AID 1053143); format: functional, cell-based
[4] = HEK293 cell cytotoxicity, dose response, cytotoxicity control, plate reader, cherry-picked samples (AID 743446); format: functional, cell-based
[5] = MC4R antagonists, dose response, counter-screen for LGR2 antagonist project, cell-based, plate reader, cherry pick (AID 743444); format: functional;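 note: transfected HEK 293 cells stimulated with alpha-MSH peptide; potency of inhibitors of the alpha-MSH evoked signal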
[6] = A549 cell cytotoxicity, dose response, cytotoxicity control, plate reader, cherry-pick, antagonist series (AID 743412); format: functional, cell-based
[7] = target: 1-phosphatidylinositol 4,5-bisphosphate phosphodiesterase beta-3 (Homo sapiens, UniProt Q01970); test: Fluorescence-based biochemical high throughput dose response assay to identify inhibitors of phospholipase C isozymes (PLC-B3).
Sequence of 1-phosphatidylinositol 4,5-bisphosphate phosphodiesterase beta-3 (Q01970 whole entry): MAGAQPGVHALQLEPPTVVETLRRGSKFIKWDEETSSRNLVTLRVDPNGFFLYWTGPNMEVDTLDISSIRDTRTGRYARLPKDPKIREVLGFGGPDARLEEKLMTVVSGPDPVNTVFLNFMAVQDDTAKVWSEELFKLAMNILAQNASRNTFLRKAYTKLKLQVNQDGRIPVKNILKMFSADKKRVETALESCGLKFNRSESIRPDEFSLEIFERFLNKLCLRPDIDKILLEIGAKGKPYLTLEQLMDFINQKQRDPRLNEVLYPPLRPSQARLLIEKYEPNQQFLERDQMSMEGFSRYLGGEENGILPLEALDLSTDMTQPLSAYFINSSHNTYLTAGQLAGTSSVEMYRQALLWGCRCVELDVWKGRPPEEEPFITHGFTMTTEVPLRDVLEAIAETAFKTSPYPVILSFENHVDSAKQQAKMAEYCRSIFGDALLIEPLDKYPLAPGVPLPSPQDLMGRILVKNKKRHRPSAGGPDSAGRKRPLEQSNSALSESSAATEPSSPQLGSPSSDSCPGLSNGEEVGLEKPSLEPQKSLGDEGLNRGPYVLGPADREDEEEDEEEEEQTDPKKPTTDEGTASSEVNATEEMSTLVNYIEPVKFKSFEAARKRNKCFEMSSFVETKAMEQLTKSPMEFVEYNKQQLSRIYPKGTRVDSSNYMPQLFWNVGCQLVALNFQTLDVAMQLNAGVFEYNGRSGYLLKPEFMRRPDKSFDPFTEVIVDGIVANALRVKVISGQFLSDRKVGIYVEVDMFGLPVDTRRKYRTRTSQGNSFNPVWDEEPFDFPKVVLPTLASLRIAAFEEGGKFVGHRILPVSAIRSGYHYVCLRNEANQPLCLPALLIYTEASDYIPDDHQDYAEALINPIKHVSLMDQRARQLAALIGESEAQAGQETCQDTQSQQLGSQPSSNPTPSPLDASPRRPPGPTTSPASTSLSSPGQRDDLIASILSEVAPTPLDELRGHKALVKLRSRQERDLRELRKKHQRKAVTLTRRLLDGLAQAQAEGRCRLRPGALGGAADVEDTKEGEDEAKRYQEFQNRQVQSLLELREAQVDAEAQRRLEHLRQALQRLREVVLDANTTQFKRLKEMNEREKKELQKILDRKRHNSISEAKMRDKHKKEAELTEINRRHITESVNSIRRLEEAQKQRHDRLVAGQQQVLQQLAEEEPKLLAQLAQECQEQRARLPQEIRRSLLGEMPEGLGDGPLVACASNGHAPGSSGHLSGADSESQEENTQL

[8] = target: Nonstructural protein 1 (Influenza A virus, UniProt Q194T2); format: functional, Influenza A virus (A/California/07/2009(H1N1))
Sequence of Nonstructural protein 1 (Q194T2 whole entry): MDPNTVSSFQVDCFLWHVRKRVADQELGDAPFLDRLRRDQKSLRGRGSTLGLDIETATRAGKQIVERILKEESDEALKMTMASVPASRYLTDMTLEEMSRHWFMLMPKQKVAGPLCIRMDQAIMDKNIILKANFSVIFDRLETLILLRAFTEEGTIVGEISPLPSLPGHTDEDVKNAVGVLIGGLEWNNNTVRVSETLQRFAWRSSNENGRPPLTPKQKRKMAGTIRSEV

[9] = target: 1-phosphatidylinositol 4,5-bisphosphate phosphodiesterase gamma-1 (Homo sapiens, UniProt P19174); test: Counterscreen for inhibitors of phospholipase C isozymes (PLC-B3): Fluorescence-based biochemical high throughput dose response assay to identify inhibitors of phospholipase C isozymes (PLC-gamma1).
Sequence of 1-phosphatidylinositol 4,5-bisphosphate phosphodiesterase gamma-1 (P19174 whole entry): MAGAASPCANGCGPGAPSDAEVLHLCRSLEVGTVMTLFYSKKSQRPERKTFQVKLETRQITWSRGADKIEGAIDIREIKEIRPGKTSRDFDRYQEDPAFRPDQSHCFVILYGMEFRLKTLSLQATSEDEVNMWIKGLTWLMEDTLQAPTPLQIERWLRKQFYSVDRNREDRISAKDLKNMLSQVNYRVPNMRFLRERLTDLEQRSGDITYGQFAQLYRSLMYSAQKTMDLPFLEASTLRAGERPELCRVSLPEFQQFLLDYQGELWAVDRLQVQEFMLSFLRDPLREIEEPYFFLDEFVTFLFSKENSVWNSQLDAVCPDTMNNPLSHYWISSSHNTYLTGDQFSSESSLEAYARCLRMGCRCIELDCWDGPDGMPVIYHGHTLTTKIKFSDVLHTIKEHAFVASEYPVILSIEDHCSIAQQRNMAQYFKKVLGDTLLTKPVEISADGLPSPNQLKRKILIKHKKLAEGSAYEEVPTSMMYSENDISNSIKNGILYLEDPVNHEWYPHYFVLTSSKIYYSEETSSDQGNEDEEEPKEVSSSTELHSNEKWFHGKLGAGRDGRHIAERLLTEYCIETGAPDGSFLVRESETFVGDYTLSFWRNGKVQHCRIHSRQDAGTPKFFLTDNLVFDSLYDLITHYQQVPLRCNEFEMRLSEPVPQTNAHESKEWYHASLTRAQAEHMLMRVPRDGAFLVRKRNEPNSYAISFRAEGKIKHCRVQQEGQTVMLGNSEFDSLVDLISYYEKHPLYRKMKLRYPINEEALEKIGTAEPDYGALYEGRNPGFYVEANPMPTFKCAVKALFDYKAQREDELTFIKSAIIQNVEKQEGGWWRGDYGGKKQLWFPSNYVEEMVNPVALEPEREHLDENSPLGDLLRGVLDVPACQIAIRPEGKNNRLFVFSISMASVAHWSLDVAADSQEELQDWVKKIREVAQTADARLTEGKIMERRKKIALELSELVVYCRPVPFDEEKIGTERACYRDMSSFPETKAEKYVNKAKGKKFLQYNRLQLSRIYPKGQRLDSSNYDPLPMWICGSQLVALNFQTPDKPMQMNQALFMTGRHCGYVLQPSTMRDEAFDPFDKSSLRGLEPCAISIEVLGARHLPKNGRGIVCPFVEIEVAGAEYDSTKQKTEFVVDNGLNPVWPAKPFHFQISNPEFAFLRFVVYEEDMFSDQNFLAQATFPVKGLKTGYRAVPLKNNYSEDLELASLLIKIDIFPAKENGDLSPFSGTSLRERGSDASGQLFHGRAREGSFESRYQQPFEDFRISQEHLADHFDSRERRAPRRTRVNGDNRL

[10] = target: Paired box protein Pax-8 (Homo sapiens, UniProt Q06710); test: inhibitors of PAX8-driven TPO luciferase reporter, dose response, RMG-I cells, cherry-pick (AID 687027); format: functional, cell-based;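 note: luciferase reporter driven by Pax8 target thyroperoxidase promoter measured by SteadyGlo luminescence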
Sequence of Paired box protein Pax-8 (Q06710 whole entry): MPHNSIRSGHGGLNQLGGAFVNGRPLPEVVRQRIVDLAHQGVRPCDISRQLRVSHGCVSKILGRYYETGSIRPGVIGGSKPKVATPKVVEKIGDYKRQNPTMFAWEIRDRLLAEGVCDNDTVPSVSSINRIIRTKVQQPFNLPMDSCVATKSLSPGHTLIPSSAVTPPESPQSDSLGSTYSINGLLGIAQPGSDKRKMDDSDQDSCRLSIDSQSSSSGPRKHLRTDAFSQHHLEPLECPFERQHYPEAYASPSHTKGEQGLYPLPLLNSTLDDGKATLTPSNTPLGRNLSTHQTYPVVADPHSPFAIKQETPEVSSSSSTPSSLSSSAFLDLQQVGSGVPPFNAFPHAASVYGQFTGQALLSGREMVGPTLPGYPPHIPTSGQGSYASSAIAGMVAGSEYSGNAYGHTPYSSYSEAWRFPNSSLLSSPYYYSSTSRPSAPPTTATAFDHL

[11] = IGROV1 ovarian cancer cell cytotoxicity, dose response, PAX8 inhibitor project, plate reader, dry powder samples (AID 743043); format: functional, cell-based; settings: IGROV-1
[12] = cytotoxicity in OVCAR8 ovarian cancer cells, dose response, PAX8 project, cell-based, plate reader, dry powder samples (AID 743197); format: functional; settings: OVCAR-8

For `c1csc(-c2nc(CN3CCSCC3)cs2)c1`, the AC50 [1] was 18.8 µM (active), the AC50 [2] was > 52 µM (inactive) and the AC50 [3] was 26 µM (active). The AC50 [4] was > 52 µM (inactive), the AC50 [5] was 14.8 µM (active) and the AC50 [6] was > 52 µM (inactive).
With `Cc1ccc(S(=O)(=O)NC2=C(N3CCN(c4ccccc4F)CC3)C(=O)c3ccccc3C2=O)cc1` the IC50 [7] was > 122 µM (inactive), the IC50 [8] was 32.5 µM (active) and the IC50 [9] was > 122 µM (inactive).
For `C[C@H]1CCCCO[C@H](CN(C)C(=O)NC2CCCCC2)[C@@H](C)CN([C@@H](C)CO)C(=O)c2cc(NC(=O)Nc3ccc(C(F)(F)F)cc3)ccc2O1`, the AC50 [10] was 8.03 µM (active), the AC50 [11] was 47.5 µM (active) and the AC50 [12] was 67.2 µM (active).
With `COCCNCCCOc1ccc(Br)cc1Cl` the IC50 [7] was > 123 µM (inactive) and the IC50 [9] was > 123 µM (inactive).

— ChEMBL document CHEMBL1201862, “PubChem BioAssay data set” (2004)
